Measurements from patent US20100056508A1, “AMINE DERIVATIVES AND THEIR USE IN BETA-2-ADRENORECEPTOR MEDIATED DISEASES” (ASTRAZENECA AB, priority 2006, published 2010).
Where a name gives a salt, the structure may show the parent alone.

Tests used:
[1] = biological target: T1, recombinant human adrenergic beta 1 receptors (Homo sapiens, UniProt P08588); assay: Adrenergic β1 selectivity assay, [125I]-Iodocyanopindolol binding to membranes; settings: inhibition of [125I]-Iodocyanopindolol binding, read-out: β1 bind pIC50 (converted)
T1 construct: purchased Euroscreen
T1 sequence (P08588 whole entry): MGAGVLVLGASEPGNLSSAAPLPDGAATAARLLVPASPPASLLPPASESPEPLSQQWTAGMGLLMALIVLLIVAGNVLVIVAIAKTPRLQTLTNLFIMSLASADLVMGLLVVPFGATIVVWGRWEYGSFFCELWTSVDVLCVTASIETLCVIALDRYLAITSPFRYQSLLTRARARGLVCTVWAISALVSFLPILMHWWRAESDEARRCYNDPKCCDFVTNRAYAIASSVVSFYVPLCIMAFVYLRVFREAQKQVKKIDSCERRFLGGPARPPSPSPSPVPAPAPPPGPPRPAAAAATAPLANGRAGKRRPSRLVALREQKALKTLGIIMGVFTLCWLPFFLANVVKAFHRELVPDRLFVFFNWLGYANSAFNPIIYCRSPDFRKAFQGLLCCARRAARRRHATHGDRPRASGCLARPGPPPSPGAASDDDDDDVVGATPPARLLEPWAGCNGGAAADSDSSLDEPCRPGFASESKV
Outline: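 Recombinant human β1 membranes in HEPES buffer pH 7.4 with 120 mM NaCl were incubated 2 hours at room temperature with 0.036 nM [^125I]-Iodocyanopindolol. Nonspecific binding defined by 10 μM propranolol; bound radioactivity counted after filtration. pIC50 from four-parameter logistic fit.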

[2] = biological target: T2, recombinant human Dopamine Subtype D2s receptors (Homo sapiens, UniProt P14416); assay: Dopamine D2 selectivity assay, [3H]-spiperone binding to membranes; settings: inhibition of [3H]-spiperone binding, read-out: D2 bind pIC50 (converted)
T2 construct: purchased Perkin Elmer
T2 sequence (P14416 1-414 isoform P14416-2): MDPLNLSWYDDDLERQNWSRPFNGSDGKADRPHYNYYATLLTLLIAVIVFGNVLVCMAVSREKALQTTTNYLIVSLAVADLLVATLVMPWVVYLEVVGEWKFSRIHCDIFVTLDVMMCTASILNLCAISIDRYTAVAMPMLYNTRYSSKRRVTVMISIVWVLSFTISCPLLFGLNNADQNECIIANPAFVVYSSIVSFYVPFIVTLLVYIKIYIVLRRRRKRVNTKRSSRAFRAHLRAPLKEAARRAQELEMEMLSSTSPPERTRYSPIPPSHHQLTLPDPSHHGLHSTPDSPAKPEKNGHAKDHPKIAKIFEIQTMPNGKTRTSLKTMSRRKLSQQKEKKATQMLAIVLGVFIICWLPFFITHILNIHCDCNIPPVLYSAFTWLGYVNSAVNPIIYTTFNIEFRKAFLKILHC
Outline: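 Human D2s receptor membranes incubated 2 h at room temperature with 0.16 nM [3H]-spiperone and test compound in HEPES buffer pH 7.4 (120 mM NaCl, 0.1% gelatin). Non-specific binding defined with 10 μM haloperidol; filter-bound radioactivity counted, pIC50 from four-parameter logistic fit.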

Adrenergic β2 = biological target: T3, Adrenergic β2 (Homo sapiens, UniProt P07550); assay: Adrenergic β2 mediated cAMP production in H292 cells (AlphaScreen cAMP detection); assay type: cell-based; set-up: key to β2 Int Act: fraction of formoterol maximum activity (formoterol = 1); settings: for β2 Int Act: Intrinsic Activity as a fraction relative to the maximum activity determined for formoterol; for EC50: cAMP production, 60 minutes at room temperature, 300 μM rolipram, read-out: β2 pEC50 (converted)
T3 construct: Adherent H292 cells were removed from tissue culture flasks; endogenous in cells; host or cells: H292 cells
T3 sequence (P07550 whole entry): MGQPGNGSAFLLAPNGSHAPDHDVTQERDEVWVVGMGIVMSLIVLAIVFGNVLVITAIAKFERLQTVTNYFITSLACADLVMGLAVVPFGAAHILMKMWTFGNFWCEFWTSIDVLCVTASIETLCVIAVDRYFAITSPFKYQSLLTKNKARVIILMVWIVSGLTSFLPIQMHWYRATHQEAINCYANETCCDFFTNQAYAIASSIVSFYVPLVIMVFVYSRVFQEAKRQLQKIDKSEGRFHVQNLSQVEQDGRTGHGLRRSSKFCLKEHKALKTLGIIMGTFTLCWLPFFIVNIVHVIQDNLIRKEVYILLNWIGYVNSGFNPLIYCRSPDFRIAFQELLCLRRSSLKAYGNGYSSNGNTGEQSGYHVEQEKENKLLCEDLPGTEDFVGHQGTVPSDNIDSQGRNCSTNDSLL
Outline: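 H292 cells pre-treated 10 min with rolipram (300 μM final), then given agonist for 60 min at room temperature in HBSS/10 mM HEPES pH 7.4, 1.6% DMSO final. Lysate cAMP measured by AlphaScreen against a cAMP standard curve. Four-parameter fit gives pEC50; intrinsic activity relative to formoterol maximum.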

SMILES	IC50 [1] [nM]	IC50 [2] [nM]	β2 Int Act (Adrenergic β2)	EC50 (Adrenergic β2) [nM]
CC(C)[C@@H](C)N(CCNCCc1ccc(O)c2c1OCC(=O)N2)C(=O)CCNCCc1ccc(Cl)c(Cl)c1 [Example 59, (R)-3-(3,4-Dichlorophenethylamino)-N-(2-(2-(5-hydroxy-3-oxo-3,4-dihydro-2H-benzo[b][1,4]oxazin-8-yl)ethylamino)ethyl)-N-(3-methylbutan-2-yl)propanamide dihydrochloride]	2000	100	0.87	3.98
O=C1COc2c(CCNCCN(C(=O)CCNCCc3ccc(Cl)cc3)C3CCCCC3)ccc(O)c2N1 [Example 32, 3-(4-Chlorophenethylamino)-N-cyclohexyl-N-(2-(2-(5-hydroxy-3-oxo-3,4-dihydro-2H-benzo[b][1,4]oxazin-8-yl)ethylamino)ethyl)propanamide bis(trifluoroacetate)]	2000	200	1.03	3.16
O=C1COc2c(CCNCCN(C(=O)CCNCCc3cc(F)cc(F)c3)C3CCCCC3)ccc(O)c2N1 [Example 35, N-Cyclohexyl-3-(3,5-difluorophenethylamino)-N-(2-(2-(5-hydroxy-3-oxo-3,4-dihydro-2H-benzo[b][1,4]oxazin-8-yl)ethylamino)ethyl)propanamide bis(trifluoroacetate)]	> 10000	251	0.87	1.58
O=C1COc2c(CCNCCN(C(=O)CCNCCc3cc(F)cc(Cl)c3)C3CCCCCC3)ccc(O)c2N1 [Example 66, 3-(3-Chloro-5-fluorophenethylamino)-N-cycloheptyl-N-(2-(2-(5-hydroxy-3-oxo-3,4-dihydro-2H-benzo[b][1,4]oxazin-8-yl)ethylamino)ethyl)propanamide bis(trifluoroacetate)]	1580	39.8	0.99	2.51
O=CNc1cc(CCNCCN(C(=O)CCNCCc2ccccc2)C2CCCCC2)ccc1O [Example 21, N-Cyclohexyl-N-(2-(3-formamido-4-hydroxyphenethylamino)ethyl)-3-(phenethylamino)propanamide]	> 10000	1260	0.83	31.6
O=C1COc2c(CCNCCN(C(=O)CCNCCc3cc(F)ccc3F)C3CCCCC3)ccc(O)c2N1 [Example 38, N-Cyclohexyl-3-(2,5-difluorophenethylamino)-N-(2-(2-(5-hydroxy-3-oxo-3,4-dihydro-2H-benzo[b][1,4]oxazin-8-yl)ethylamino)ethyl)propanamide bis(trifluoroacetate)]	> 5010	126	0.98	1.26
CC[C@@H](C)N(CCNCCc1ccc(O)c2c1OCC(=O)N2)C(=O)CCNCCc1ccc(Cl)c(Cl)c1 [Example 58, (R)—N-sec-Butyl-3-(3,4-dichlorophenethylamino)-N-(2-(2-(5-hydroxy-3-oxo-3,4-dihydro-2H-benzo[b][1,4]oxazin-8-yl)ethylamino)ethyl)propanamide dihydrochloride]	2000	39.8	0.91	7.94
CC[C@@H](C)N(CCNCCc1ccc(O)c2[nH]c(=O)ccc12)C(=O)CCOCCc1ccccc1.Cl [Example 79, (R)—N-sec-Butyl-N-(2-(2-(8-hydroxy-2-oxo-1,2-dihydroquinolin-5-yl)ethylamino)ethyl)-3-phenethoxypropanamide hydrochloride]	> 10000	> 10000	0.92	50.1
O=C(CCNCCc1ccc(Cl)cc1)N(CCNCCc1ccc(O)c2[nH]c(=O)ccc12)C1CCCCC1 [Example 14, 3-(4-Chlorophenethylamino)-N-cyclohexyl-N-(2-(2-(8-hydroxy-2-oxo-1,2-dihydroquinolin-5-yl)ethylamino)ethyl)propanamide bis(trifluoroacetate)]	> 10000	251	0.88	20
CCCC[C@@H](C)N(CCNCCc1ccc(O)c2c1OCC(=O)N2)C(=O)CCNCCc1cc(C)ccc1F [Example 56, (R)-3-(2-Fluoro-5-methylphenethylamino)-N-(hexan-2-yl)-N-(2-(2-(5-hydroxy-3-oxo-3,4-dihydro-2H-benzo[b][1,4]oxazin-8-yl)ethylamino)ethyl)propanamide bis(trifluoroacetate)]	2000	31.6	0.91	7.94
C[C@H](C1CCCCC1)N(CCNCCc1ccc(O)c2c1OCC(=O)N2)C(=O)CCNCCc1ccccc1 [Example 61, (R)—N-(1-Cyclohexylethyl)-N-(2-(2-(5-hydroxy-3-oxo-3,4-dihydro-2H-benzo[b][1,4]oxazin-8-yl)ethylamino)ethyl)-3-(phenethylamino)propanamide bis(trifluoroacetate)]	501	100	0.84	3.16
O=C(CCOCCc1ccccc1)N(CCNCCc1ccc(O)c2[nH]c(=O)ccc12)C1CCCCC1 [Example 2, N-Cyclohexyl-N-(2-(2-(8-hydroxy-2-oxo-1,2-dihydroquinolin-5-yl)ethylamino)ethyl)-3-phenethoxypropanamide]	> 6310	> 6310	0.93	12.6
O=C1COc2c(CCNCCN(C(=O)CCNCCc3cccc(Cl)c3Cl)C3CCCCC3)ccc(O)c2N1 [Example 29, N-Cyclohexyl-3-(2,3-dichlorophenethylamino)-N-(2-(2-(5-hydroxy-3-oxo-3,4-dihydro-2H-benzo[b][1,4]oxazin-8-yl)ethylamino)ethyl)propanamide bis(trifluoroacetate)]	3160	100	0.91	5.01
O=C1COc2c(CCNCCN(C(=O)CCNCCc3cccc(Cl)c3)C3CCCCCC3)ccc(O)c2N1 [Example 68, 3-(3-Chlorophenethylamino)-N-cycloheptyl-N-(2-(2-(5-hydroxy-3-oxo-3,4-dihydro-2H-benzo[b][1,4]oxazin-8-yl)ethylamino)ethyl)propanamide bis(trifluoroacetate)]	398	100	0.93	3.98
O=C1COc2c(CCNCCN(C(=O)CCNCCc3ccccc3)C3CCCCC3)ccc(O)c2N1 [Example 23, N-Cyclohexyl-N-(2-(2-(5-hydroxy-3-oxo-3,4-dihydro-2H-benzo[b][1,4]oxazin-8-yl)ethylamino)ethyl)-3-(phenethylamino)propanamide bis(trifluoroacetate)]	631	316	0.79	0.631
O=C(CCNCCc1ccccc1)N(CCNCCc1ccc(O)c(O)c1)C1CCCCC1 [Example 22, N-Cyclohexyl-N-(2-(3,4-dihydroxyphenethylamino)ethyl)-3-(phenethylamino)propanamide bis(trifluoroacetate)]	2510	501	1.01	20
CCCC[C@@H](C)N(CCNCCc1ccc(O)c2c1OCC(=O)N2)C(=O)CCNCCc1ccccc1Cl [Example 46, (R)-3-(2-Chlorophenethylamino)-N-(hexan-2-yl)-N-(2-(2-(5-hydroxy-3-oxo-3,4-dihydro-2H-benzo[b][1,4]oxazin-8-yl)ethylamino)ethyl)propanamide bis(trifluoroacetate)]	1580	15.8	0.89	1.26
O=C1COc2c(CCNCCN(C(=O)CCNCCc3ccc(Cl)c(Cl)c3)C3CCCCC3)ccc(O)c2N1 [Example 30, N-Cyclohexyl-3-(3,4-dichlorophenethylamino)-N-(2-(2-(5-hydroxy-3-oxo-3,4-dihydro-2H-benzo[b][1,4]oxazin-8-yl)ethylamino)ethyl)propanamide bis(trifluoroacetate)]	2510	50.1	0.92	3.98
O=C(CCNCCc1ccc(Cl)cc1)N(CCNCCc1ccc(O)c2[nH]c(=O)ccc12)C1CCCCCC1 [Example 4, 3-(4-Chlorophenethylamino)-N-cycloheptyl-N-(2-(2-(8-hydroxy-2-oxo-1,2-dihydroquinolin-5-yl)ethylamino)ethyl)propanamide bis(trifluoroacetate)]	3160	79.4	0.79	20
O=C1COc2c(CCNCCN(C(=O)CCOCCc3ccccc3F)C3CCCCC3)ccc(O)c2N1 [Example 76, N-Cyclohexyl-3-(2-fluorophenethoxy)-N-(2-(2-(5-hydroxy-3-oxo-3,4-dihydro-2H-benzo[b][1,4]oxazin-8-yl)ethylamino)ethyl)propanamide trifluoroacetate]	2000	2510	1.1	1.58
